System: primary human T-cells
Assay: Proliferation assay (5 days, CellTiter-Glo, CD3-stimulated T-cells)
Assay type: cell-based
Conditions: for Emax proliferation (% activation): CD3 condition, normalised to DMSO (neutral) and 20 μM reference compound A1 = 100%; for EC50: Homo sapiens, T-cell, 120 h, CD3-stimulated primary human T-cells, 5 days, CellTiter-Glo, fitted sigmoidal curve, read-out: Tcell Proliferation CD3 EC50
Outline: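 Expanded primary human T-cells, 100 k cells/well, were stimulated with plate-coated CD3 antibody (donor-titrated) and given compound in a 5 or 6 pt dose response from 20 μM or 10 μM final top, 0.2% DMSO final. ATP was read by CellTiter-Glo after 5 days. EC50 and Emax were reported as % of 20 μM reference compound A1.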

Structure (SMILES) | Emax proliferation (% activation) | EC50 [µM]
CC(C)(C#N)c1nnc(-c2ccc3c(c2)N(Cc2ccc(-c4ccc(OC(F)F)cn4)cc2)C(=O)[C@@H](N)CS3(=O)=O)o1 [Example 108, 2-[5-[(3R)-3-amino-5-[[4-[5-(difluoromethoxy)-2-pyridyl]phenyl]methyl]-1,1,4-trioxo-2,3-dihydro-1λ^6,5-benzothiazepin-7-yl]-1,3,4-oxadiazol-2-yl]-2-methyl-propanenitrile] | 204 | 0.82
CC(F)(F)c1ccc(-c2ccc(CN3C(=O)[C@@H](N)CS(=O)(=O)c4ccc(-c5nnc(C(C)(C)C#N)o5)cc43)cc2)nc1 [Example 109, 2-[5-[(3R)-3-amino-5-[[4-[5-(1,1-difluoroethyl)-2-pyridyl]phenyl]methyl]-1,1,4-trioxo-2,3-dihydro-1λ^6,5-benzothiazepin-7-yl]-1,3,4-oxadiazol-2-yl]-2-methyl-propanenitrile] | 129 | 0.445
CC(C)(C#N)c1nnc(-c2ccc3c(c2)N(Cc2ccc(-c4cc(OC(F)F)ccn4)cc2)C(=O)[C@@H](N)CS3(=O)=O)o1 [Example 110, 2-[5-[(3R)-3-amino-5-[[4-[4-(difluoromethoxy)-2-pyridyl]phenyl]methyl]-1,1,4-trioxo-2,3-dihydro-1λ^6,5-benzothiazepin-7-yl]-1,3,4-oxadiazol-2-yl]-2-methyl-propanenitrile] | 85 | 5.78
CC(C)(C#N)c1nnc(-c2ccc3c(c2)N(Cc2ccc(-c4ccnc(C(F)(F)F)c4)cc2)C(=O)[C@@H](N)CS3(=O)=O)o1 [Example 111, 2-[5-[(3R)-3-amino-1,1,4-trioxo-5-[[4-[2-(trifluoromethyl)-4-pyridyl]phenyl]methyl]-2,3-dihydro-1λ^6,5-benzothiazepin-7-yl]-1,3,4-oxadiazol-2-yl]-2-methyl-propanenitrile] | 117 | 0.926
CC(C)(C#N)c1nnc(-c2ccc3c(c2)N(Cc2ccc(-c4cnc(OC(F)(F)F)cn4)cc2)C(=O)[C@@H](N)CS3(=O)=O)o1 [Example 112] | 116 | 0.292
CC(C)(C#N)c1nnc(-c2ccc3c(c2)N(Cc2ccc(-c4ccc(C(F)(F)F)nc4)cc2)C(=O)[C@@H](N)CS3(=O)=O)o1 [Example 113, 2-[5-[(3R)-3-amino-1,1,4-trioxo-5-[[4-[6-(trifluoromethyl)-3-pyridyl]phenyl]methyl]-2,3-dihydro-1λ^6,5-benzothiazepin-7-yl]-1,3,4-oxadiazol-2-yl]-2-methyl-propanenitrile] | 79 | 1.06
Cc1nc(-c2ccc(CN3C(=O)[C@@H](N)CS(=O)(=O)c4ccc(-c5nnc(C(C)(C)C#N)o5)cc43)cc2)ccc1C(F)(F)F [Example 114] | 78 | 7.42
CC(C)(C#N)c1nnc(-c2ccc3c(c2)N(Cc2ccc(-c4cnn(C(F)(F)F)c4)cc2)C(=O)[C@@H](N)CS3(=O)=O)o1 [Example 115, 2-[5-[(3R)-3-amino-1,1,4-trioxo-5-[[4-[1-(trifluoromethyl)pyrazol-4-yl]phenyl]methyl]-2,3-dihydro-1λ^6,5-benzothiazepin-7-yl]-1,3,4-oxadiazol-2-yl]-2-methyl-propanenitrile] | 140 | 0.278
CC(C)(C#N)c1nnc(-c2ccc3c(c2)N(Cc2ccc(-c4cc(C(F)(F)F)ccn4)cc2)C(=O)[C@@H](N)CS3(=O)=O)o1 [Example 116, 2-[5-[(3R)-3-amino-1,1,4-trioxo-5-[[4-[4-(trifluoromethyl)-2-pyridyl]phenyl]methyl]-2,3-dihydro-1λ^6,5-benzothiazepin-7-yl]-1,3,4-oxadiazol-2-yl]-2-methyl-propanenitrile] | 97 | 0.439
CC(C)(C#N)c1nnc(-c2ccc3c(c2)N(Cc2ccc(-c4ncc(OC(F)(F)F)cn4)cc2)C(=O)[C@@H](N)CS3(=O)=O)o1 [Example 117] | 136 | 0.174
CC(C)(C#N)c1nnc(-c2ccc3c(c2)N(Cc2ccc(-c4ccc(C5CC5)cn4)cc2)C(=O)[C@@H](N)CS3(=O)=O)o1 [Example 118, 2-[5-[(3R)-3-amino-5-[[4-(5-cyclopropyl-2-pyridyl)phenyl]methyl]-1,1,4-trioxo-2,3-dihydro-1λ^6,5-benzothiazepin-7-yl]-1,3,4-oxadiazol-2-yl]-2-methyl-propanenitrile] | 144 | 1.57
CC(C)(C#N)c1nnc(-c2ccc3c(c2)N(Cc2ccc(-c4ccc(OC(F)(F)F)cc4)nc2)C(=O)[C@@H](N)CS3(=O)=O)o1 [Example 119, 2-[5-[(3R)-3-amino-1,1,4-trioxo-5-[[6-[4-(trifluoromethoxy)phenyl]-3-pyridyl]methyl]-2,3-dihydro-1λ^6,5-benzothiazepin-7-yl]-1,3,4-oxadiazol-2-yl]-2-methyl-propanenitrile] | 119 | 0.809
CC(C)(C#N)c1nnc(-c2ccc3c(c2)N(Cc2ccc(-n4nnc(C(F)(F)F)n4)cc2)C(=O)[C@@H](N)CS3(=O)=O)o1 [Example 120, 2-[5-[(3R)-3-amino-1,1,4-trioxo-5-[[4-[5-(trifluoromethyl)tetrazol-2-yl]phenyl]methyl]-2,3-dihydro-1λ^6,5-benzothiazepin-7-yl]-1,3,4-oxadiazol-2-yl]-2-methyl-propanenitrile] | 205 | 1.52
CC(C)(C#N)c1nnc(-c2ccc3c(c2)N(Cc2ccc(-c4nc(C(F)(F)F)co4)cc2)C(=O)[C@@H](N)CS3(=O)=O)o1 [Example 123, 2-[5-[(3R)-3-amino-1,1,4-trioxo-5-[[4-[4-(trifluoromethyl)oxazol-2-yl]phenyl]methyl]-2,3-dihydro-1λ^6,5-benzothiazepin-7-yl]-1,3,4-oxadiazol-2-yl]-2-methyl-propanenitrile] | 103 | 0.86
COc1ccc(-c2ccc(CN3C(=O)[C@@H](N)CS(=O)(=O)c4ccc(-c5nnc(C(C)(C)C#N)o5)cc43)cc2)nc1 [Example 125] | 127 | 2.31
CC(C)(C#N)c1nnc(-c2ccc3c(c2)N(Cc2ccc(-c4cc(OC(F)(F)F)ccn4)cc2)C(=O)[C@@H](N)CS3(=O)=O)o1 [Example 126, 2-[5-[(3R)-3-amino-1,1,4-trioxo-5-[[4-[4-(trifluoromethoxy)-2-pyridyl]phenyl]methyl]-2,3-dihydro-1λ^6,5-benzothiazepin-7-yl]-1,3,4-oxadiazol-2-yl]-2-methyl-propanenitrile] | 212 | 2.49
CC(C)(C#N)c1nnc(-c2ccc3c(c2)N(Cc2ccc(-c4ncc(C(F)(F)F)cn4)cc2)C(=O)[C@@H](N)CS3(=O)=O)o1 [Example 127, 2-[5-[(3R)-3-amino-1,1,4-trioxo-5-[[4-[5-(trifluoromethyl)pyrimidin-2-yl]phenyl]methyl]-2,3-dihydro-1λ^6,5-benzothiazepin-7-yl]-1,3,4-oxadiazol-2-yl]-2-methyl-propanenitrile] | 130 | 1.98
CC(C)(C#N)c1nnc(-c2ccc3c(c2)N(Cc2ccc(-c4ccc(OC(F)(F)C(F)(F)F)cn4)cc2)C(=O)[C@@H](N)CS3(=O)=O)o1 [Example 129, 2-[5-[(3R)-3-amino-1,1,4-trioxo-5-[[4-[5-(1,1,2,2,2-pentafluoroethoxy)-2-pyridyl]phenyl]methyl]-2,3-dihydro-1λ^6,5-benzothiazepin-7-yl]-1,3,4-oxadiazol-2-yl]-2-methyl-propanenitrile] | 119 | 0.0228
N[C@H]1CS(=O)(=O)c2ccc(-c3nnc(C4(C(F)F)CNC4)o3)cc2N(Cc2ccc(-c3ccc(C(F)(F)F)cc3)cc2)C1=O [Example 152] | 90 | 1.44
C[C@@](N)(c1nnc(-c2ccc3c(c2)N(Cc2ccc(-c4ccc(OC(F)(F)F)cn4)cc2)C(=O)[C@@H](N)CS3(=O)=O)o1)C(F)(F)F [Example 153, (3R)-3-amino-7-[5-[(1R)-1-amino-2,2,2-trifluoro-1-methyl-ethyl]-1,3,4-oxadiazol-2-yl]-1,1-dioxo-5-[[4-[5-(trifluoromethoxy)-2-pyridyl]phenyl]methyl]-2,3-dihydro-1λ^6,5-benzothiazepin-4-one] | 178 | 0.13
C[C@@](N)(c1nnc(-c2ccc3c(c2)N(Cc2ccc(-c4ccc(C(F)(F)F)cn4)cc2)C(=O)[C@@H](N)CS3(=O)=O)o1)C(F)(F)F [Example 154, (3R)-3-amino-7-[5-[(1R)-1-amino-2,2,2-trifluoro-1-methyl-ethyl]-1,3,4-oxadiazol-2-yl]-1,1-dioxo-5-[[4-[5-(trifluoromethyl)-2-pyridyl]phenyl]methyl]-2,3-dihydro-1λ^6,5-benzothiazepin-4-one] | 151 | 0.984
C[C@@](N)(c1nnc(-c2ccc3c(c2)N(Cc2ccc(-n4nnc(C(F)(F)F)n4)cc2)C(=O)[C@@H](N)CS3(=O)=O)o1)C(F)(F)F [Example 156, (3R)-3-amino-7-[5-[(1R)-1-amino-2,2,2-trifluoro-1-methyl-ethyl]-1,3,4-oxadiazol-2-yl]-1,1-dioxo-5-[[4-[5-(trifluoromethyl)tetrazo 1-2-yl]phenyl]methyl]-2,3-dihydro-1λ^6,5-benzothiazepin-4-one] | 141 | 1.71
